# Reference: patent US20240425479A1, “HALO-SUBSTITUTED AMINO AZA-HETEROARYL COMPOUNDS AS INHIBITORS OF THE HAEMATOPOIETIC PROGENITOR KINASE 1 (HPK1)” (priority 2021, published 2024)
# How the values were obtained:
# Lck (h) = Lck (h) (Homo sapiens, UniProt P06239); assay: Lck human STE kinase enzymatic radiometric assay; format: biochemical; conditions: read-out: Lck IC50 nM Range
# Method: (b) Lck Human STE Kinase Enzymatic Radiometric Assay
# Lck (h) is incubated with 50 mM Tris pH 7.5, 0.1 mM EGTA, 0.1 mM Na3VO4, 250 uM KVEKIGEGTYGVVYK (Cdc2 peptide), 10 mM MgAcetate and [gamma-33P]-ATP (specific activity and concentration as required). The reaction is initiated by the addition of the Mg/ATP mix. After incubation for 40 minutes at room temperature, the reaction is stopped by the addition of phosphoric acid to a concentration of 0.5%, 10 μL of the reaction is then spotted onto a P30 filtermat and washed four times for 4 minutes in 0.425% phosphoric acid and once in methanol prior to drying and scintillation counting. For more details on the kinase assay procedures see: Gao, Y. et. al.; Biochem J., 451 (2): 313-328, 2013.
# [1] = biological target: T1, Recombinant (1-346) HPK1 (h) (Homo sapiens, UniProt Q92918); assay: HPK1 human STE kinase enzymatic radiometric assay; format: biochemical; conditions: read-out: HPK1 IC50 nM Range
# T1 construct: Recombinant (1-346) HPK1 (h) is incubated with 8 mM MOPS pH 7.0
# T1 sequence (Q92918 1-346): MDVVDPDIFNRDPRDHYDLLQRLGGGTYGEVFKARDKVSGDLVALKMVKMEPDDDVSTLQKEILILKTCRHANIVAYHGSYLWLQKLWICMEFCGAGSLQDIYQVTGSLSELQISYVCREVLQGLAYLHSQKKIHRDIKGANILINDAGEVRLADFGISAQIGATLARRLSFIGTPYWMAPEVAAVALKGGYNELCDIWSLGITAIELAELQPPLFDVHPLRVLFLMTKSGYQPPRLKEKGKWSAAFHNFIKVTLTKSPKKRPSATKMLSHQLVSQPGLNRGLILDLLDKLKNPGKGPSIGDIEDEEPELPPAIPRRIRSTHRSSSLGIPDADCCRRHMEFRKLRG
# How it was run: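 Recombinant HPK1 (1-346) incubated 40 min at RT with 0.33 mg/mL myelin basic protein and [gamma-33P]-ATP in 8 mM MOPS pH 7.0, 0.2 mM EDTA, 10 mM Mg acetate; reaction started with Mg/ATP. Stopped with 0.5% phosphoric acid, spotted on P30 filtermat, washed, scintillation counted. Compounds tested as 9-point 3-fold dilutions.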
# Sequence of Lck (h) (P06239 whole entry): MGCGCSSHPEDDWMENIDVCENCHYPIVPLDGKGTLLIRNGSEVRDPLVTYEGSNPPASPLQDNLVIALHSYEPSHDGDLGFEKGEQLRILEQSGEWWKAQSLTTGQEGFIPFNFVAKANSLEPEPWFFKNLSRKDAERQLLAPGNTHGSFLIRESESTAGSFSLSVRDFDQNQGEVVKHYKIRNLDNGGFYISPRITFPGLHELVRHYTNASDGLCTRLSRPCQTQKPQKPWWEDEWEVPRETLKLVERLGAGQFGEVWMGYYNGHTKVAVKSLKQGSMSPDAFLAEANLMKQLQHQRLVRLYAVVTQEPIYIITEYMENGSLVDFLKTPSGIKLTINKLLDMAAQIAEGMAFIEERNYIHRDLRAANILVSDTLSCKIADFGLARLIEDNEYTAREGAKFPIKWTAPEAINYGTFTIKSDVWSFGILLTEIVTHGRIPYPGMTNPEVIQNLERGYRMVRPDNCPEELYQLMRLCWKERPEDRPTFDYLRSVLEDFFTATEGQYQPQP
IC50 (Lck (h)),IC50 [1],SMILES
> 1000 nM,0.1 to 10 nM,"CN(C)Cc1cc(-c2nc(-c3ccc4c(=O)[nH]cc(F)c4c3)c(N)nc2F)ccc1C1CCOCC1 [Example I-42, 6-(3-amino-6-(3-((dimethylamino)methyl)-4-(tetrahydro-2H-pyran-4-yl)phenyl)-5-fluoropyrazin-2-yl)-4-fluoroisoquinolin-1(2H)-one]"
> 1000 nM,0.1 to 10 nM,"Nc1nc(F)c(-c2ccc(N3CCN(C4COC4)CC3)cc2)nc1-c1cc(F)c2c(c1)CCNC2=O [Example I-44, 6-(3-amino-5-fluoro-6-(4-(4-(oxetan-3-yl)piperazin-1-yl)phenyl)pyrazin-2-yl)-8-fluoro-3,4-dihydroisoquinolin-1(2H)-one]"
> 1000 nM,0.1 to 10 nM,"Nc1nc(F)c(-c2ccc(N3CCN(C4CCC4)CC3)cc2)nc1-c1cc2c(cc1F)C(=O)NCC2 [Example I-48, 6-(3-amino-6-(4-(4-cyclobutylpiperazin-1-yl)phenyl)-5-fluoropyrazin-2-yl)-7-fluoro-3,4-dihydroisoquinolin-1(2H)-one]"
> 1000 nM,0.1 to 10 nM,"CN(C)Cc1cc(-c2nc(-c3ccc4c(c3)CCNC4=O)c(N)nc2F)ccc1C1CCOCC1 [Example I-59, 6-(3-amino-6-(3-((dimethylamino)methyl)-4-(tetrahydro-2H-pyran-4-yl)phenyl)-5-fluoropyrazin-2-yl)-3,4-dihydroisoquinolin-1(2H)-one]"
> 1000 nM,0.1 to 10 nM,"CN(C)Cc1cc(-c2nc(-c3cc4c(cc3F)C(=O)NCC4)c(N)nc2F)ccc1C1CCOCC1 [Example I-60, 6-(3-amino-6-(3-((dimethylamino)methyl)-4-(tetrahydro-2H-pyran-4-yl)phenyl)-5-fluoropyrazin-2-yl)-7-fluoro-3,4-dihydroisoquinolin-1(2H)-one]"
101 to 1000 nM,0.1 to 10 nM,"Cc1c[nH]c(=O)c2ccc(-c3nc(-c4ccc(N5CCN(C(C)C)CC5)cc4)c(F)nc3N)cc12 [Example I-62, 6-(3-amino-5-fluoro-6-(4-(4-isopropylpiperazin-1-yl)phenyl)pyrazin-2-yl)-4-methylisoquinolin-1(2H)-one]"
> 1000 nM,0.1 to 10 nM,"CN(C)Cc1cc(-c2nc(-c3ccc4c(c3)CCNC4=O)c(N)nc2F)ccc1N1CCOCC1 [Example I-64, 6-(3-amino-6-(3-((dimethylamino)methyl)-4-morpholinophenyl)-5-fluoropyrazin-2-yl)-3,4-dihydroisoquinolin-1(2H)-one]"
> 1000 nM,0.1 to 10 nM,"CC(C)N1CCN(c2ccc(-c3nc(-c4ccc5c(=O)[nH]cc(F)c5c4)c(N)nc3F)cc2)CC1 [Example I-66, 6-(3-amino-5-fluoro-6-(4-(4-isopropylpiperazin-1-yl)phenyl)pyrazin-2-yl)-4-fluoroisoquinolin-1(2H)-one]"
> 1000 nM,0.1 to 10 nM,"Cc1cc2cc(-c3nc(-c4ccc(N5CCN(C(C)C)CC5)cc4)c(F)nc3N)cc(F)c2c(=O)[nH]1 [Example I-67, 6-(3-amino-5-fluoro-6-(4-(4-isopropylpiperazin-1-yl)phenyl)pyrazin-2-yl)-8-fluoro-3-methylisoquinolin-1(2H)-one]"
> 1000 nM,0.1 to 10 nM,"Cc1[nH]c(=O)c2ccc(-c3nc(-c4ccc(N5CCN(C(C)C)CC5)cc4)c(F)nc3N)cc2c1F [Example I-71, 6-(3-amino-5-fluoro-6-(4-(4-isopropylpiperazin-1-yl)phenyl)pyrazin-2-yl)-4-fluoro-3-methylisoquinolin-1(2H)-one]"
> 1000 nM,0.1 to 10 nM,"Cc1c[nH]c(=O)c2ccc(-c3nc(-c4ccc(N5CCN(CC6CC6)CC5)cc4)c(F)nc3N)cc12 [Example I-72, 6-(3-amino-6-(4-(4-(cyclopropylmethyl)piperazin-1-yl)phenyl)-5-fluoropyrazin-2-yl)-4-methylisoquinolin-1(2H)-one]"
101 to 1000 nM,0.1 to 10 nM,"CC(C)N1CCN(c2ccc(-c3nc(-c4ccc5c(=O)[nH]cc(Cl)c5c4)c(N)nc3F)cc2)CC1 [Example I-78, 6-(3-amino-5-fluoro-6-(4-(4-isopropylpiperazin-1-yl)phenyl)pyrazin-2-yl)-4-chloroisoquinolin-1(2H)-one]"
> 1000 nM,0.1 to 10 nM,"CN1C[C@@H]2C[C@]2(c2ccc(-c3nc(-c4ccc5c(=O)[nH]cc(F)c5c4)c(N)nc3F)cc2)C1 [Example I-80, 6-(3-amino-5-fluoro-6-(4-((1S,5R)-3-methyl-3-azabicyclo[3.1.0]hexan-1-yl)phenyl)pyrazin-2-yl)-4-fluoroisoquinolin-1(2H)-one]"
> 1000 nM,0.1 to 10 nM,"CN(C)Cc1cc(-c2nc(-c3cc(F)c4c(c3)CCNC4=O)c(N)nc2F)ccc1C1CCOCC1 [Example I-83, 6-(3-amino-6-(3-((dimethylamino)methyl)-4-(tetrahydro-2H-pyran-4-yl)phenyl)-5-fluoropyrazin-2-yl)-8-fluoro-3,4-dihydroisoquinolin-1(2H)-one]"
> 1000 nM,0.1 to 10 nM,"CC(C)N1CCN(c2ccc(-c3nc(-c4cc(F)c5c(=O)[nH]cc(F)c5c4)c(N)nc3F)cc2)CC1 [Example I-85, 6-(3-amino-5-fluoro-6-(4-(4-isopropylpiperazin-1-yl)phenyl)pyrazin-2-yl)-4,8-difluoroisoquinolin-1(2H)-one]"
> 1000 nM,0.1 to 10 nM,"Cc1nc2cc(-c3nc(-c4ccc(C5CCOCC5)c(CN(C)C)c4)c(F)nc3N)cc(F)c2c(=O)[nH]1 [Example I-91, 7-(3-amino-6-(3-((dimethylamino)methyl)-4-(tetrahydro-2H-pyran-4-yl)phenyl)-5-fluoropyrazin-2-yl)-5-fluoro-2-methylquinazolin-4(3H)-one]"
> 1000 nM,0.1 to 10 nM,"Cc1nc2cc(-c3nc(-c4ccc(C5CCOCC5)c(CN(C)C)c4)c(F)nc3N)ccc2c(=O)[nH]1 [Example I-92, 7-(3-amino-6-(3-((dimethylamino)methyl)-4-(tetrahydro-2H-pyran-4-yl)phenyl)-5-fluoropyrazin-2-yl)-2-methylquinazolin-4(3H)-one]"
> 1000 nM,0.1 to 10 nM,"Cc1c[nH]c(=O)c2ccc(-c3nc(-c4ccc(N5CCOCC5)c(CN(C)C)c4)c(F)nc3N)cc12 [Example I-96, 6-(3-amino-6-(3-((dimethylamino)methyl)-4-morpholinophenyl)-5-fluoropyrazin-2-yl)-4-methylisoquinolin-1(2H)-one]"
> 1000 nM,0.1 to 10 nM,"Cc1[nH]c(=O)c2ccc(-c3nc(-c4ccc(C5CCOCC5)c(CN(C)C)c4)c(F)nc3N)cc2c1F [Example I-97, 6-(3-amino-6-(3-((dimethylamino)methyl)-4-(tetrahydro-2H-pyran-4-yl)phenyl)-5-fluoropyrazin-2-yl)-4-fluoro-3-methylisoquinolin-1(2H)-one]"
> 1000 nM,0.1 to 10 nM,"Cc1c[nH]c(=O)c2ccc(-c3nc(-c4ccc(C5CCOCC5)c(CN(C)C)c4)c(F)nc3N)cc12 [Example I-98, 6-(3-amino-6-(3-((dimethylamino)methyl)-4-(tetrahydro-2H-pyran-4-yl)phenyl)-5-fluoropyrazin-2-yl)-4-methylisoquinolin-1(2H)-one]"
> 1000 nM,0.1 to 10 nM,"Cc1cc2cc(-c3nc(-c4ccc(C5CCOCC5)c(CN(C)C)c4)c(F)nc3N)cc(F)c2c(=O)[nH]1 [Example I-100, 6-(3-amino-6-(3-((dimethylamino)methyl)-4-(tetrahydro-2H-pyran-4-yl)phenyl)-5-fluoropyrazin-2-yl)-8-fluoro-3-methylisoquinolin-1(2H)-one]"
101 to 1000 nM,0.1 to 10 nM,"CC(C)N1CCN(c2ccc(-c3nc(-c4ccc5c(c4)C4(CC4)CNC5=O)c(N)nc3F)cc2)CC1 [Example I-103, 6′-(3-amino-5-fluoro-6-(4-(4-isopropylpiperazin-1-yl)phenyl)pyrazin-2-yl)-2′,3′-dihydro-1′H-spiro[cyclopropane-1,4′-isoquinolin]-1′-one]"
101 to 1000 nM,0.1 to 10 nM,"CN(C)Cc1cc(-c2nc(-c3ccc4c(c3)C3(CC3)CNC4=O)c(N)nc2F)ccc1C1CCOCC1 [Example I-110, 6′-(3-amino-6-(3-((dimethylamino)methyl)-4-(tetrahydro-2H-pyran-4-yl)phenyl)-5-fluoropyrazin-2-yl)-2′,3′-dihydro-1′H-spiro[cyclopropane-1,4′-isoquinolin]-1′-one]"
> 1000 nM,0.1 to 10 nM,"Nc1nc(F)c(-c2ccc(N3CCOCC3)c(CN3CCCC3)c2)nc1-c1ccc2c(c1)CCNC2=O [Example I-113, 6-(3-amino-5-fluoro-6-(4-morpholino-3-(pyrrolidin-1-ylmethyl)phenyl)pyrazin-2-yl)-3,4-dihydroisoquinolin-1(2H)-one]"
